Test results as given in ChEMBL document CHEMBL5260817, “Polyamine-based analogs and conjugates as antikinetoplastid agents” (Eur J Med Chem, 2017).
Blank lines part the entries; values can stand above or below the molecule they belong to.

Tests used:
Trypanosoma cruzi [1] = test: Antiprotozoal activity against Trypanosoma cruzi epimastigotes; type: functional, organism-based; details: Trypanosoma cruzi
Trypanothione reductase [2] = molecular target: T1, Trypanothione reductase (Trypanosoma cruzi, UniProt P28593); test: Inhibition of Trypanosoma cruzi TryR assessed as inhibition constant by TR assay
T1 sequence (P28593 whole entry): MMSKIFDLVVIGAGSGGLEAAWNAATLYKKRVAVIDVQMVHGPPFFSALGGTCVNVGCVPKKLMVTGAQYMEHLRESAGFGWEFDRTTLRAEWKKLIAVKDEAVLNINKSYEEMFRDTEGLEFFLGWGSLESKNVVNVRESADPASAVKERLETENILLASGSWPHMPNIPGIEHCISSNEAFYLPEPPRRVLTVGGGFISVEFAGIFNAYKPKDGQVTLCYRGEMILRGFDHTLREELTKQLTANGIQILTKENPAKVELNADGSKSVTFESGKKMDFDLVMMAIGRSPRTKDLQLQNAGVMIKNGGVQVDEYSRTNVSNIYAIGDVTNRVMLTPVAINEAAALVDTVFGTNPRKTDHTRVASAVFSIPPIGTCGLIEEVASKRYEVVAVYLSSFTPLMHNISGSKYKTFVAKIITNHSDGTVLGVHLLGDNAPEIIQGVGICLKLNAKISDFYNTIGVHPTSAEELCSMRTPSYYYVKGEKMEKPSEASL

Trypanothione reductase [3] = molecular target: Trypanothione reductase (Trypanosoma brucei brucei, UniProt P39051); test: Inhibition of Trypanosoma brucei TryR assessed as inhibition constant
Trypanothione reductase (Trypanosoma brucei brucei, UniProt P39051), sequence (P39051 whole entry): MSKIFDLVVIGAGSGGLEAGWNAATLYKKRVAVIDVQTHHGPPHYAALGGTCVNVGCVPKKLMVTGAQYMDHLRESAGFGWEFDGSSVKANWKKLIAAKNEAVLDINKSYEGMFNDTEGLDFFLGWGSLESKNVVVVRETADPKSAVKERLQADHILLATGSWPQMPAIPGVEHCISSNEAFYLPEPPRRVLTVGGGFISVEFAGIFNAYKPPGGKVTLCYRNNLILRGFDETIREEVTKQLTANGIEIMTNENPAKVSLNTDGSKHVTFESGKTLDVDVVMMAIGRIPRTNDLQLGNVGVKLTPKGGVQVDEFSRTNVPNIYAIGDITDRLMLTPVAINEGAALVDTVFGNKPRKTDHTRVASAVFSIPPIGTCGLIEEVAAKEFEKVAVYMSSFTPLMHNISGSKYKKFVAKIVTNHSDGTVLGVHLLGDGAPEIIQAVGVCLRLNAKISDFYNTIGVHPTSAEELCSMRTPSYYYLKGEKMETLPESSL

Leishmania braziliensis [4] = test: Antiprotozoal activity against Leishmania braziliensis 2903 strain […] assessed as […] at 10 ug/ml relative to control; type: functional; details: dose 10 µg/ml
Leishmania donovani [5] = test: Antiprotozoal activity against Leishmania donovani PP75 strain […] assessed as […] at 10 ug/ml relative to control; type: functional; details: dose 10 µg/ml
Leishmania amazonensis [6] = test: Antiprotozoal activity against Leishmania amazonensis PH8 strain […] assessed as […] at 10 ug/ml relative to control; type: functional; details: dose 10 µg/ml
Leishmania donovani [7] = test: Antiprotozoal activity against Leishmania donovani; type: functional, organism-based
[8] = test system: Trypanosoma brucei rhodesiense; test: Antiprotozoal activity against Trypanosoma brucei rhodesiense; type: functional, organism-based
Trypanosoma cruzi [9] = test: Antiprotozoal activity against Trypanosoma cruzi; type: functional, organism-based
Leishmania donovani [10] = test: Antiprotozoal activity against Leishmania donovani amastigotes assessed as growth inhibition measured after 7 days relative to control; type: functional; details: time 7 day
Trypanosoma cruzi [11] = test: Antiprotozoal activity against Trypanosoma cruzi MG strain epimastigotes; type: functional, organism-based
Trypanosoma cruzi [12] = test: Antiprotozoal activity against Trypanosoma cruzi JEM strain epimastigotes; type: functional, organism-based
Leishmania amazonensis [13] = test: Antiprotozoal activity against Leishmania amazonensis measured after 3 days by MTT assay; type: functional, organism-based; details: 72 h
Leishmania chagasi = test: Antiprotozoal activity against Leishmania chagasi measured after 3 days by MTT assay; type: functional, organism-based; details: 72 h
Leishmania donovani [14] = test: Antiprotozoal activity against Leishmania donovani MHOM/SD/00/1S-2D strain promastigotes assessed as parasitic death; type: functional, organism-based
Leishmania donovani [15] = test: Antiprotozoal activity against Leishmania donovani MHOM/SD/00/1S-2D strain promastigotes assessed as parasitic death at 10 uM relative to control; type: functional
[16] = test system: Trypanosoma brucei brucei; test: Antiprotozoal activity against Trypanosoma brucei brucei; type: functional, organism-based
Trypanothione reductase [17] = molecular target: T1, Trypanothione reductase; test: Inhibition of Trypanosoma cruzi TryR
Trypanosoma brucei [18] = test: Trypanocidal activity against Trypanosoma brucei trypomastigotes; type: functional, organism-based
[19] = Inhibition of TryR (unknown origin) assessed as inhibition constant; parameters: species or system Bacteria
Homo sapiens = organism: Homo sapiens; test: Inhibition of Superoxide dismutase (unknown origin) at 100 uM measured after 24 hrs relative to control
Trypanothione reductase [20] = molecular target: T1, Trypanothione reductase; test: Inhibition of Trypanosoma cruzi TryR assessed as inhibition constant
Trypanosoma brucei [21] = test: Trypanocidal activity against Trypanosoma brucei K 243 strain; type: functional, organism-based
Trypanosoma brucei [22] = test: Trypanocidal activity against Trypanosoma brucei Lab 110 strain; type: functional, organism-based
Trypanosoma brucei [23] = test: Trypanocidal activity against Trypanosoma brucei K 269 strain; type: functional, organism-based
Trypanosoma brucei [24] = test: Trypanocidal activity against Trypanosoma brucei K 243-As-10-3 strain; type: functional, organism-based
[25] = Inhibition of Trypanosoma brucei MetRS
Trypanosoma brucei [26] = test: Antiprotozoal activity against Trypanosoma brucei; type: functional, organism-based
Leishmania donovani [27] = test: Antiprotozoal activity against Leishmania donovani promastigote at 10 uM relative to control; type: functional
Trypanosoma = test: Inhibition of Trypanosomal TryS at 10 uM relative to control
Bacteria = test: Inhibition of TryR (unknown origin) at 10 uM relative to control
Leishmania donovani [28] = test: Antiprotozoal activity against Leishmania donovani MHOM/IN/1978/UR6 strain promastigotes assessed as parasite growth inhibition; type: functional, organism-based
Leishmania braziliensis [29] = test: Antiprotozoal activity against Leishmania braziliensis MHOM/PE/84/LC26 amastigotes infected in mouse J774.2 cells measured after 72 hrs; type: functional, organism-based; details: J774.2, 72 h
Leishmania amazonensis [30] = test: Antiprotozoal activity against Leishmania amazonensis promastigotes measured after 48 hrs by MTT assay; type: functional, organism-based
[31] = molecular target: Glutathione reductase, mitochondrial (Homo sapiens, UniProt P00390); test: Inhibition of human glutathione reductase
Glutathione reductase, mitochondrial, sequence (P00390 whole entry): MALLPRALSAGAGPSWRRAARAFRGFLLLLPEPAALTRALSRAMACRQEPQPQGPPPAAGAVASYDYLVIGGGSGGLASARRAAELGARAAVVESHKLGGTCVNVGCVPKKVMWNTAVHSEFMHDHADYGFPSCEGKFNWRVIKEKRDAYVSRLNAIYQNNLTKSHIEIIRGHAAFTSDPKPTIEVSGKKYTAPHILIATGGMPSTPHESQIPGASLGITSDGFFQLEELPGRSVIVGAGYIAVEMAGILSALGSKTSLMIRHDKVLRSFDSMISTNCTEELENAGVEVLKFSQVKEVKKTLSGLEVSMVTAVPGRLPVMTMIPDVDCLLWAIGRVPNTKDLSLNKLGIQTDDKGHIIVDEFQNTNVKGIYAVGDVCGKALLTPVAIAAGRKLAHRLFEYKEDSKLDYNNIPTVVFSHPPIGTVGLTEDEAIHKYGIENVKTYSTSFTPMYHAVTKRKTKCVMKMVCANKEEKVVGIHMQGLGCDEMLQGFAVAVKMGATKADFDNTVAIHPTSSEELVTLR

Leishmania donovani [32] = test: Antiprotozoal activity against Leishmania donovani promastigotes; type: functional, organism-based
Trypanothione reductase [33] = molecular target: T1, Trypanothione reductase; test: Inhibition of Trypanosoma cruzi TryR assessed as inhibition constant in presence of NADPH

SMILES: Clc1ccc(Sc2ccccc2)c(NCCN2CCCC2)c1
- IC50 (Trypanosoma cruzi [1]): 10 µM
- Ki (Trypanothione reductase [2]): 86 µM

SMILES: CCCCCCCCCCCCCCC(CN(CC)CC)NC(=O)OC(C)(C)C (stereo not drawn)
- Activity (Leishmania braziliensis [4]): 80%
- Activity (Leishmania donovani [5]): 80%
- Activity (Leishmania amazonensis [6]): 80%

SMILES: COC(=O)/N=C(\NCCCN1CCN(C)CC1)NC(=O)OC
- inhibition (INH) (Leishmania donovani [10]): 85%

SMILES: CCCCCCCCCCCC(=O)NCCCCN
- IC50 (Leishmania amazonensis [13]): 10 µM
- IC50 (Leishmania chagasi): 10 µM

SMILES: COc1ccc2nc3cc(Cl)ccc3c(NCCCCN(CCCNc3c4ccc(Cl)cc4nc4ccc(OC)cc34)C(=O)[C@H](C)N)c2c1
- IC50 (Leishmania donovani [14]): 1 µM
- inhibition at 10 µM (Leishmania donovani [15]): 90%

SMILES: O=C1CC[C@]23/C=C/C(=O)NCCCCNCCCNC(=O)/C=C/c4ccc(c2c4)O[C@@H]3C1
- IC50 (Trypanosoma brucei [18]): 65 µM
- Ki [19]: 114 µM

SMILES: NCCCCN(CCCN)C(=O)OCc1ccccc1
- Ki (Trypanothione reductase [20]): > 100 µM

SMILES: Fc1ccc2[nH]c(NCCCNCc3cc(Cl)cc(Cl)c3)nc2n1
- IC50 [25]: 0.001 µM
- IC50 (Trypanosoma brucei [26]): 0.004 µM

SMILES: COc1ccc2nc3cc(Cl)ccc3c(NCCCCCCCCNc3c4ccc(Cl)cc4nc4ccc(OC)nc34)c2c1
- inhibition at 10 µM (Leishmania donovani [27]): 42%

SMILES: c1ccc(CNCCCCNCCCCCCCCCCCCNCCCNCc2ccccc2)cc1
- IC50 (Leishmania donovani [28]): 4 µM

SMILES: CCCCCCCCCCCCNCCN
- IC50 (Leishmania amazonensis [13]): 0.94 µM
- IC50 (Leishmania chagasi): 0.2 µM

SMILES: CC(C)=CCC/C(C)=C/CC/C(C)=C/CN1CCNCC1
- IC50 (Leishmania amazonensis [30]): 13 µM

SMILES: CC(C)=CCC/C(C)=C/CC/C(C)=C/CNCCCCN
- IC50 (Leishmania amazonensis [30]): 15 µM

SMILES: CCCNCCCCCCCCCNC(=O)[C@H](O)[C@H](O)[C@H](O)CO
- IC50 (Leishmania chagasi): 2.5 µM

SMILES: NCCCCN(Cc1ccccc1)Cc1ccc(OCc2ccccc2)cc1
- IC50 (Leishmania donovani [32]): < 1 µM

SMILES: NCCCCN(CCCN)Cc1ccccc1
- Ki (Trypanothione reductase [20]): > 100 µM

Now from value to molecule, other results behind:

- Ki (Trypanothione reductase [3]): 19 µM
SMILES: c1ccc(CNCCCNCCCCNCCCNCc2ccccc2)cc1

- IC50 (Leishmania donovani [7]): > 40 µM
- IC50 [8]: > 40 µM
- IC50 (Trypanosoma cruzi [9]): > 40 µM
SMILES: NCCCCNCCCNC(=O)C(=O)c1c[nH]c2cc(Br)ccc12

- IC50 (Trypanosoma cruzi [11]): > 19 µM
- IC50 (Trypanosoma cruzi [12]): > 19 µM
SMILES: CCCCCCCCCCCCCCC(N)CN (stereo not drawn)

- IC50 [16]: > 15 µM
SMILES: N=C(NCCCNCCCCCCCNCCCNC(=N)NC1CCCCCC1)NC1CCCCCC1

- IC50 (Trypanothione reductase [17]): 0.2 µM
SMILES: CCCCCCCCCCCCCC(=O)NCCCC(=O)N(CC(=O)Nc1cccc(Sc2ccc(Br)cc2NC(=O)CCN2CCN(C)CC2)c1)C(=O)Nc1ccccc1Sc1ccc(Br)cc1NC(=O)CCN1CCN(C)CC1

- inhibition (Homo sapiens): 80%
SMILES: O=C(NCCCCCCNC(=O)c1cccc(O)c1O)c1cccc(O)c1O

- IC50 (Trypanothione reductase [17]): 0.8 µM
SMILES: CN1CCN(CCCNC(=O)CCCCCC2=C(CCCCCC(=O)NCCCN3CCN(C)CC3)C(=O)c3c(N)cccc3C2=O)CC1

- Ki (Trypanothione reductase [20]): 2 µM
SMILES: CCCNCCCNC(=O)CNC(=O)[C@H](CCCC[C@H](NC(=O)OCC1c2ccccc2-c2ccccc21)C(=O)NCC(=O)NCCCNCCC)NC(=O)OCC1c2ccccc2-c2ccccc21

- Ki (Trypanothione reductase [3]): 0.6 µM
SMILES: c1ccc(CCCNCCCN(CCCCN(CCCNCCCc2ccccc2)CCCc2ccccc2)CCCc2ccccc2)cc1
- IC50 (Trypanosoma brucei [21]): 0.1 µM
- IC50 (Trypanosoma brucei [22]): 0.1 µM
- IC50 (Trypanosoma brucei [23]): 0.1 µM
- IC50 (Trypanosoma brucei [24]): 0.1 µM

- IC50 (Trypanosoma brucei [26]): 1 µM
SMILES: c1ccc(-c2cccc(CNCCCNCCCCCCCNCCCNCc3cccc(-c4ccccc4)c3)c2)cc1

- inhibition (Trypanosoma): 90%
SMILES: CNCCNC(=O)CN1C(=O)Cc2c([nH]c3ccc(Br)cc23)-c2ccccc21

- inhibition (Bacteria): 95%
SMILES: O=C(Cc1c[nH]c2ccccc12)NCCCCNCCCNC(=O)Cc1c[nH]c2ccccc12

- IC50 (Leishmania braziliensis [29]): 0.93 µM
- IC50 (Trypanothione reductase [17]): 0.93 µM
SMILES: CN1CCN(CCC(=O)Nc2cc(Cl)ccc2Sc2cccc(NC(=O)CCCC(=O)Nc3cccc(Sc4ccc(Cl)cc4NC(=O)CCN4CCN(C)CC4)c3)c2)CC1

- IC50 [16]: 0.18 µM
SMILES: COc1ccc2c(C(=O)C(=O)NCCCNCCCCCCCCCCCCNCCCNC(=O)C(=O)c3c[nH]c4cc(OC)ccc34)c[nH]c2c1

- IC50 [8]: 1.56 µM
SMILES: CN1CCN(CCC(=N)Nc2cc(Cl)ccc2Sc2ccccc2)CC1

- inhibition (Trypanosoma): 80%
SMILES: NCCNC(=O)CN1C(=O)Cc2c([nH]c3ccc(Br)cc23)-c2ccccc21

- Ki (Trypanothione reductase [3]): > 100 µM
SMILES: O=C(Cc1ccccc1)NCCCNCCCCNCCCNC(=O)Cc1ccccc1

- IC50 [31]: > 40 µM
SMILES: CCCCN(CCCC)CCCNC(=O)CCCCC1=C(C)C(=O)c2ccccc2C1=O

- Ki [19]: 3.5 µM
SMILES: CN1CCN(CCCNC(=O)/C=C/c2ccc3occ(/C=C/C(=O)NCCCN4CCN(C)CC4)c3c2)CC1

- IC50 (Trypanothione reductase [17]): 5.4 µM
SMILES: NCCCN1CCN(CCCNC2=C(c3c[nH]c4ccccc34)C(=O)N(CCCN3CCN(CCCN)CC3)C2=O)CC1

- Ki (Trypanothione reductase [33]): > 2000 µM
SMILES: O=C(NCCCCNCCCNC(=O)C(F)(F)F)C(F)(F)F
